Test results published in patent publication US9951060B2, “2-acylaminothiazole derivative or salt thereof” (ASTELLAS PHARMA INC., priority 2014, dated 2018).
Structures can show the parent of a compound that is named as a salt.

Columns and labels:
rat isolated bladder = experiment: Test Example 3: effect on electrical field stimulation-induced contraction in rat isolated bladder; details: 10 μM test substance; AUC of contraction, value before treatment = 100%; SD female rat bladder
Procedure: Test Example 3: Effect on Electrical Field Stimulation-Induced Contraction in Rat Isolated Bladder
As an effect on the nerve stimulation-dependent bladder contraction in in vitro, the effect of the Example compounds of the present invention in the electrical field stimulation-induced contraction of the rat isolated bladder was measured by the following method. That is, a bladder specimen having a width of about 2 mm and a length of about 10 mm in the longitudinal direction from the bladder isolated from a Sprague-Dawley (SD) female rat (Japan SLC, Inc.) was prepared. The prepared bladder specimen was suspended in an organ bath filled with 10 mL of a Krebs-Henseleite solution. The Krebs-Henseleite solution was aerated at 95% 02 and 5% CO2, and kept at 37° C. After carrying out stabilization at an initial tension of 1 g, the contraction was caused twice with 60 mM KCl. After stabilization of the specimen with a Krebs-Henseleite solution, the contraction was caused by carrying out electrical field stimulation at 20 V with an electrical stimulation device (Nihon Kohden) (a stimulation frequency of 8 Hz, a pulse width of 0.3 msec, and a stimulation time of 10 seconds). By repeating the transmural electrical stimulation at an interval of 2 minutes, a voltage was adjusted to obtain a contraction height of approximately 50% of the contractile response at 20 V. After the contraction by electrical field stimulation had been stabilized, 10 μL of the test substances dissolved in 100% dimethyl sulfoxide in advance (final concentrations of 3 μM, 10 μM, and 30 μM) was added thereto. The test substances were cumulatively administered at the following concentrations after the low-concentration contractile response had been stabilized. The response was taken into a personal computer through a PowerLab (registered trademark) (AD Instruments, Inc.), and analyzed by LabChart (registered trademark) (AD Instruments, Inc.). When the area under the response (area under curve, AUC) in each contraction response was calculated and the value before treatment with the test substance was taken as 100%, the enhancement rate (% of pre) of the isolated bladder contractions after treatment with the test substance was calculated.

[1] = tested on: pelvic nerve stimulation-induced elevation of intravesical pressure; experiment: Test Example 4: effect on pelvic nerve stimulation-induced elevation of intravesical pressure in anesthetized rats; type: in vivo, rat; details: 3 mg/kg intravenous; maximum effect within one hour; anesthetized SD female rats; pre-treatment = 100%
Procedure: Test Example 4: Effect on Pelvic Nerve Stimulation-Induced Elevation of Intravesical Pressure in Anesthetized Rats
The effect of the Example compounds of the present invention in the pelvic nerve electrical stimulation-induced elevation of intravesical pressure using rats as an action of nerve stimulation-dependent bladder contraction in vivo was measured by the following method. That is, SD female rats (Japan SLC, Inc.) were used and its lower abdomen was dissected at the midline under pentobarbital anesthesia (50 mg/kg ip). After ligating and cutting the ureter on both sides, a cannula (PE-50) for measuring the intravesical pressure was inserted into the bladder from the external urethral opening and fixed by a clip. After injecting about 200 μL of saline through the cannula that had been inserted into the bladder, the other side was connected to a pressure transducer to measure the intravesical pressure. Under a stereoscopic microscope observation, the pelvic nerve in the vicinity of the bladder was peeled and an electrode for nerve stimulation (unique Medical) was placed. The abdominal cavity was filled with mineral oil (MP BIOMEDICALS). After placing in a post-operative stabilization period, the pelvic nerve was subjected to electrical stimulation (stimulation voltage: 10 V, stimulation frequency: 8 Hz, pulse width: 0.3 msec, and stimulation time: 10 seconds) to elicit the elevation of intravesical pressure, using an electrical stimulator (Nihon Kohden). By repeating the electrical stimulation at an interval of 2 minutes while adjusting the voltage, the voltage was adjusted to elicit about 50% to 70% elevation of intravesical pressure elicited at 10 V. Thereafter, by repeating the electrical stimulation at an interval of 10 minutes, the increase in the intravesical pressure by electrical stimulation was stabilized three times or more, and the test substance (an administration amount of 3 mg/kg) was then administered from the catheter detained in the vein at a volume of 1 mL/kg, thus measuring an effect of the elevation of the intravesical pressure of the test substance for 1 hour. The test substance was dissolved in water supplemented with 10% dimethylsulfoxide and 10% Cremophor.
The response was applied to a personal computer through a PowerLab (registered trademark) and analyzed by LabChart (registered trademark). The AUC of each elevation of the intravesical pressure was calculated, the intravesical pressure elevation rate (% of pre) after the treatment with the test substance was calculated by taking an average value of the values measured three times before the treatment with the test substance as 100%, and the maximum effect during a period within one hour after administration of the compound was considered as the effect of the test substance.
The elevation rates (% of pre) of the intravesical pressure when some Example compounds were administered at 3 mg/kg are shown in Table 4.

Row | SMILES | Enhancement rate (% of pre) of isolated bladder contractions (rat isolated bladder) | Increase rate (% of pre) of intravesical pressure [1]
1 | C[C@@H]1CCCN1Cc1sc(NC(=O)c2cnc(N3CCN(CCC(=O)O)C[C@H]3C)cn2)nc1-c1cc(C(F)(F)F)cs1 [Example 3, 3-[(3R)-3-methyl-4-{5-[(5-{[(2R)-2-methylpyrrolidin-1-yl]methyl}-4-[4-(trifluoromethyl)thiophen-2-yl]-1,3-thiazol-2-yl)carbamoyl]pyrazin-2-yl}piperazin-1-yl]propanoic acid dihydrochloride] | 152 % of pre | 251 % of pre
2 | COc1ccc(-c2nc(NC(=O)c3cnc(N4CCN(CCC(=O)O)[C@@H](C)C4)cn3)sc2CN2CCC[C@H]2C)cc1C(F)(F)F [Example 10] | 161 % of pre | 145 % of pre
3 | C[C@@H]1CCCN1Cc1sc(NC(=O)c2cnc(N3CCN(CCC(=O)O)CC3)cn2)nc1-c1cc(Cl)cc(C(F)(F)F)c1 [Example 11] | 123 % of pre | 132 % of pre
4 | C[C@@H]1CCCN1Cc1sc(NC(=O)c2cnc(N3CCN(CC(=O)O)CC3)cn2)nc1-c1cc(Cl)cc(C(F)(F)F)c1 [Example 13] | 126 % of pre | 132 % of pre
5 | C[C@@H]1CCCN1Cc1sc(NC(=O)c2cnc(N3CCN(CCC(=O)O)CC3)cn2)nc1-c1ccc(Cl)c(C(F)(F)F)c1 [Example 15] | 124 % of pre | 142 % of pre
6 | C[C@@H]1CCCN1Cc1sc(NC(=O)c2cnc(N3CCN(CCCC(=O)O)CC3)cn2)nc1-c1cc(F)cc(C(F)(F)F)c1 [Example 21] | 141 % of pre | 155 % of pre
7 | CC[C@@H]1CCCN1Cc1sc(NC(=O)c2cnc(N3CCN(CCC(=O)O)C[C@@H]3C)cn2)nc1-c1cc(Cl)cs1 [Example 28] | 123 % of pre | 184 % of pre
8 | CC[C@@H]1CCCN1Cc1sc(NC(=O)c2cnc(N3CCN(CCC(=O)O)CC3)cn2)nc1-c1ccc(OC)c(C(F)(F)F)c1 [Example 42] | 158 % of pre | 149 % of pre
9 | COc1c(Cl)cc(-c2nc(NC(=O)c3cnc(N4CCN(CCC(=O)O)CC4)cn3)sc2CN2CCC[C@H]2C)cc1Cl [Example 43] | 179 % of pre | 125 % of pre
10 | Cc1cc(OC(F)(F)F)cc(-c2nc(NC(=O)c3cnc(N4CCN(CCC(=O)O)CC4)cn3)sc2CN2CCC[C@H]2C)c1 [Example 46] | 132 % of pre | 126 % of pre
11 | Cc1cc(OC(F)(F)F)cc(-c2nc(NC(=O)c3cnc(N4CCN(C(C)C(=O)O)CC4)cn3)sc2CN2CCC[C@H]2C)c1 (stereo partly drawn) [Example 48] | 143 % of pre | 121 % of pre
12 | C[C@@H]1CCCN1Cc1sc(NC(=O)c2cnc(N3CCN(CCC(=O)O)CC3)cn2)nc1-c1cc(F)cc(C(F)(F)F)c1 [Example 49] | 153 % of pre | 172 % of pre
13 | C[C@@H]1CCCN1Cc1sc(NC(=O)c2cnc(N3CCN(CCC(=O)O)CC3)cn2)nc1-c1cc(Cl)cs1 [Example 50] | 183 % of pre | 207 % of pre
14 | C[C@@H]1CCCN1Cc1sc(NC(=O)c2cnc(N3CCN(CC(=O)O)CC3)cn2)nc1-c1cc(Cl)cs1 [Example 51] | 151 % of pre | 223 % of pre
15 | COc1cc(-c2nc(NC(=O)c3cnc(N4CCN(CCC(=O)O)CC4)cn3)sc2CN2CCC[C@H]2C)cc(C(F)(F)F)c1 [Example 52] | 132 % of pre | 129 % of pre
16 | C[C@@H]1CCCN1Cc1sc(NC(=O)c2cnc(N3CCN(CCC(=O)O)CC3)cn2)nc1-c1ccc(F)c(C(F)(F)F)c1 [Example 60] | 144 % of pre | 130 % of pre
17 | C[C@@H]1CCCN1Cc1sc(NC(=O)c2cnc(N3CCN(CC(=O)O)CC3)cn2)nc1-c1ccc(F)c(C(F)(F)F)c1 [Example 61] | 176 % of pre | 129 % of pre
18 | CC(C(=O)O)N1CCN(c2cnc(C(=O)Nc3nc(-c4cc(F)cc(C(F)(F)F)c4)c(CN4CCC[C@H]4C)s3)cn2)CC1 (stereo partly drawn) [Example 64] | 162 % of pre | 135 % of pre
19 | CC[C@@H]1CCCN1Cc1sc(NC(=O)c2cnc(N3CCN(CCC(=O)O)CC3)cn2)nc1-c1cccc(C(F)(F)F)c1 [Example 65] | 127 % of pre | 128 % of pre
20 | C[C@@H]1CCCN1Cc1sc(NC(=O)c2cnc(N3CCN(CCC(=O)O)CC3)cn2)nc1-c1cc(C2CC2)cc(C(F)(F)F)c1 [Example 67] | 116 % of pre | 126 % of pre
21 | COc1c(F)cc(-c2nc(NC(=O)c3cnc(N4CCN(CCC(=O)O)CC4)cn3)sc2CN2CCC[C@H]2C)cc1C(F)(F)F [Example 72] | 157 % of pre | 155 % of pre
22 | C[C@@H]1CCCN1Cc1sc(NC(=O)c2cnc(N3CCN(CCC(=O)O)CC3)cn2)nc1-c1cc(Cl)cs1 [Example 82] | 158 % of pre | 138 % of pre
23 | C[C@@H]1CCCN1Cc1sc(NC(=O)c2cnc(N3CCN(CCC(=O)O)[C@@H](C)C3)cn2)nc1-c1cc(C(F)(F)F)cs1 [Example 95] | 150 % of pre | 239 % of pre
24 | CCN(CC)Cc1sc(NC(=O)c2cnc(N3CCN(CCC(=O)O)CC3)cn2)nc1-c1cc(F)cc(C(F)(F)F)c1 [Example 109] | 183 % of pre | 180 % of pre
25 | C[C@@H]1CC[C@@H](C)N1Cc1sc(NC(=O)c2cnc(N3CCN(CCC(=O)O)CC3)cn2)nc1-c1cc(F)cc(C(F)(F)F)c1 [Example 119] | 154 % of pre | 173 % of pre
26 | CCOc1ccc(-c2nc(NC(=O)c3cnc(N4CCN(CCC(=O)O)C[C@H]4C)cn3)sc2CN2CCC[C@H]2CC)cc1C(F)(F)F [Example 133] | 151 % of pre | 150 % of pre
27 | CC[C@@H]1CCCN1Cc1sc(NC(=O)c2cnc(N3CCN(CCC(=O)O)C[C@H]3C)cn2)nc1-c1ccc(OC(C)C)c(C(F)(F)F)c1 [Example 135] | 139 % of pre | 168 % of pre
